One assay deals with α1-adrenergic receptor. Briefly: α1-adrenergic receptor binding (3H-prazosin displacement, rat cortex membranes). Set-up: species or system rat (Wistar). The settings on record: 3H-prazosin 0.05 nM, 25° C., 20 min. An excerpt: Charles River male Wistar (virus-free) rats were group housed for approximately one week and given food and water (Wayne Lab Blox) ad libitum. Animals were exposed to equal hours(12--12) of dark and light and used at a weight range of 150-280 g (8 to 10 weeks of age). Rats were sacrificed by cervical dislocation and their brains were rapidly excised and immediately placed on ice. The cortex was removed, weighed, and used immediately or frozen on dry ice.
The frozen tissue was homogenized in 20 volumes of HEPES buffered sucrose (10 mM HEPES, 300 mM sucrose, pH 7.5) using a motor driven Teflon pestle/glass homogenizer (all homogenates and solutions were maintained at 4-8° C.). The homogenate was centrifuged at 1000×g for 10 minutes, and the supernatant was recentrifuged at 48,000×g for 10 min. […]
The samples were incubated in a 25° C. water bath for 20 min, harvested on a Brandel Cell Harvester on to Wallac filtermat-B sheets (96 sample format), washed three times with 2 mL cold HEPES-buffer (10 mM, pH 7.5), and dried in a microwave oven. To each sample area 80 ul of Betaplate Scint scintillation fluid (LKB) was added and analyzed on a LKB (Wallac) 1205 BetaPlate liquid scintillation counter.
The data were used to calculate either the % inhibition compared to control binding (a single concentration of test compound is evaluated) or a Ki value (a range of concentrations are tested). […]

Assay [1] is described as follows: rat air-induced writhing (abdominal constriction) assay. It counts as in vivo, rats. Particulars: rat air-induced writhing. Here is the method:
The analgesic activity was determined in another model using rats as the test animal. The procedure was essentially described by P. VonVoightlander et al. in Air-induced Writhing, a Rapid Broad Spectrum Assay for Analgesics, Drug Dev. Res., 2, 577-81, (1982). The test compound or vehicle was administered p.o. (2 mL/kg) and after 30 min, the animals received an i.p. injection of air (10 mL). The animals were placed into individual observation chambers and observed for 30 min for the occurrence of abdominal constriction as defined above. The percent inhibition of this response was calculated as follows. The % inhibition of response, i.e., % analgesia is equal to the number nonresponding drug-treated animals×100 divided by the number of animals in the group. […] This effect lasted for 2-3 hours.
(In writhing tests, fewer writhes than in controls are read as antinociception.)

In general, Ki refers to the dissociation constant of the complex between target and ligand, obtained from inhibition or displacement. Usually ED50 stands for the dose that gives a 50% effect, or the effect in half of the subjects.

`CN1CC2CCc3[nH]c4ccccc4c3C2C1` (single isomer, unassigned) [Compound 58]: at α1-adrenergic receptor, the inhibition constant (Ki) came to 61 nM. The ED50 in assay [1] (po, p.o., read-out: ED50) was determined as 23.1 mg/kg. Besides, in assay [1] (oral dosing), the “analgesic effect observed, time after oral dosing” value stood at 30 min and the “duration of analgesic effect” value is 2 to 3 h.

The values are drawn from patent US6063803A, “Octahydropyrrolo-[3,4-c]carbazoles useful as analgesic agents” (Ortho-McNeil Pharmaceutical, Inc., priority 1999, dated 2000).
